# Measured values as given in patent publication US20190046662A1, “Compositions and Methods for Treating Neuropathic Pain” (Rutgers, The State University of New Jersey, priority 2016, published 2019).
# Columns and labels:
# hSyn-hM4D [1] = biological target: T1, hSyn-hM4D (Homo sapiens, UniProt P08173, A203G/Y113C); assay: Pain-like behavior after infraorbital nerve chronic constriction injury (IoN-CCI), synapsin-DREADD (hSyn-hM4D); type: in vivo, rat; settings: IoN-CCI males
# T1 construct: expressed in transfected cells; host or cells: rat trigeminal ganglion neurons in vivo, viral vector with synapsin promoter
# T1 sequence (P08173 1-479 Y113C/A203G): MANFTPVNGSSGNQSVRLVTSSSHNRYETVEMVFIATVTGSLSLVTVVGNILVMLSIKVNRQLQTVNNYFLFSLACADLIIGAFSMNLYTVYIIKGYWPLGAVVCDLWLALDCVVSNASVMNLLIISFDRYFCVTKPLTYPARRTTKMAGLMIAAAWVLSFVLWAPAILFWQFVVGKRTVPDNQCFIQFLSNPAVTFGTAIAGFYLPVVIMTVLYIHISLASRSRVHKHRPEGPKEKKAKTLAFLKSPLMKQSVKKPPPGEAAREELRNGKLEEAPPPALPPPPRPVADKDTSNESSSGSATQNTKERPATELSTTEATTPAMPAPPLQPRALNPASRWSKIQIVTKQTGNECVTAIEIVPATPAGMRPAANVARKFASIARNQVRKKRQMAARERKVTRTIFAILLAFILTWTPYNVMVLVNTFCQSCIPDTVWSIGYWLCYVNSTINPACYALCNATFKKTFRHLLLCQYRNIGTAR
# Source text: For the infraorbital nerve chronic constriction injury (ION-CCI), ˜0.5 cm of the infraorbital nerve will be freed and two chromic gut ligatures will be loosely tied around it (2 mm apart) prior to closure of the incision (all performed under ketamine/xylazine anesthesia). As a control, other rats will undergo sham surgery where the infraorbital nerve is exposed but left untouched. This model results in persistent pain beginning at about 2 weeks postoperatively and lasting at least 3 weeks (Benoliel et al. (2001) Neurosci. Lett., 297:151-4; Benoliel et al. (2002) Pain 97:203-12), allowing for the assessment of the effect of vehicle vs CNO/DREADD-mediated inhibition of TG neurons on this behavior at multiple time points. Fos expression and cAMP levels may also be measured in the TG to correlate these molecular endpoints to behavioral effects of DREADD activation. The rats will also undergo repeated stimulation with a 2-g von Frey hair applied to the hairy skin of the vibrissae on the operated side to induce Fos (Vos et al. (1995) J. Comp. Neurol., 357:362-75). Activation of hM4Di receptors will reduce Fos in the TG following von Frey stimulation.
# The effects of synapsin-DREADD activation with CNO on pain-like behavior following chronic constriction injury (CCI) of the infraorbital nerve (ION) were also studied (FIG. 6). The mean von Frey detection thresholds (±SEM) (left) and the mean response scores (±SEM) (right) to the pin-prick stimulation applied to the vibrissal pads were plotted. All animals (males, n=4 per group) were exposed to the infraorbital nerve chronic constriction injury (IoN-CCI) unilaterally. Following IoN-CCI, all animals had synapsin-DREADD (hSyn-hM4D) injected into the ipsilateral trigeminal ganglion. At post-operative day 26 (D26) CNO or vehicle was delivered intraperitoneally 30 minutes prior to behavioral testing.
# hSyn-hM4D [2] = biological target: T1, hSyn-hM4D; assay: Face grooming after s.c. formalin into right upper lip, synapsin-DREADD (hSyn-hM4D); type: in vivo, rat; settings: n=7 per group, vs vehicle
# Experimental: The effects of synapsin-DREADD activation with CNO on face grooming activity observed after subcutaneous (s.c.) injection of formalin into the right upper lip were also studied (FIG. 5). The mean number of seconds that rats (males, n=7 per group; females, n=7 per group) spent grooming (±SEM) is plotted for the 45 minutes post-formalin injection observation period. All animals had synapsin-DREADD (hSyn-hM4D) injected into the right trigeminal ganglion. CNO or vehicle was delivered intraperitoneally 30 minutes prior to the s.c. injection of 1.5% formalin (50 μl) into the right upper lip (ipsilateral side), just lateral to the nose.
smiles,measurement,setting,value
"C[N+]1([O-])CCN(C2=Nc3cc(Cl)ccc3Nc3ccccc32)CC1 [CNO, clozapine N-oxide]","pin-prick response score, contralateral side",hSyn-hM4D [1]; CNO i.p. at D26,No significant effects
same,"von Frey detection threshold, contralateral side",hSyn-hM4D [1]; CNO i.p. at D26,No significant effects
same,"von Frey detection threshold, ipsilateral side, compared to post-operative days 21 and 27","hSyn-hM4D [1]; CNO i.p. at D26, D21 F=20.4, P=0.004, D27 F=7.8, P=0.03",significantly increased
same,"pin-prick response score, ipsilateral side, compared to post-operative days 21 and 27","hSyn-hM4D [1]; CNO i.p. at D26, D21 F=32, P=0.001, D27 F=21, P=0.004",significantly decreased
same,"von Frey detection threshold, ipsilateral side, compared to vehicle treated animals","hSyn-hM4D [1]; n=4 per group, CNO i.p. at D26, 30 min prior to testing, F=7.8, P=0.03",significantly increased
same,"pin-prick response score, ipsilateral vibrissal pad, compared to vehicle treated animals","hSyn-hM4D [1]; n=4 per group, CNO i.p. at D26, F=7.7, P=0.03",significantly decreased
same,"total face grooming time, tonic phase (12-45 minutes post formalin injection)","hSyn-hM4D [2]; females, CNO i.p. 30 min prior to formalin, F=5.5, P=0.02",significantly reduced
same,"total face grooming time, tonic phase (12-45 minutes post formalin injection)","hSyn-hM4D [2]; males, CNO i.p. 30 min prior to 1.5% formalin (50 μl) s.c., F=27.1, P<0.0001",significantly reduced
same,"total face grooming time, acute phase (0-6 minutes post formalin injection)","hSyn-hM4D [2]; males, CNO i.p. 30 min prior to formalin, F=4.5, P=0.04",significant reduction
